{"source": "ChEMBL document CHEMBL5316298", "about": "“Discovery of Amphiphilic Xanthohumol Derivatives as Membrane-Targeting Antimicrobials against Methicillin-Resistant Staphylococcus aureus” (J Med Chem, 2023)", "key": {"[1]": {"assay": "Toxicity in KM mouse assessed as pathological changes in heart at 20 mg/kg, sc administered into middle dorsum and measured after 24 hrs by H and E staining based analysis", "type": "organism-based", "conditions": "in vivo"}, "[2]": {"assay": "Toxicity in KM mouse assessed as effect on urea level at 20 mg/kg, sc administered into middle dorsum and measured after 24 hrs by routine blood test", "type": "organism-based", "conditions": "in vivo"}, "[3]": {"assay": "Toxicity in KM mouse assessed as effect on albumin level at 20 mg/kg, sc administered into middle dorsum and measured after 24 hrs by routine blood test", "type": "organism-based", "conditions": "in vivo"}, "Staphylococcus aureus [4]": {"test_system": "Staphylococcus aureus", "assay": "Antibacterial activity against Staphylococcus aureus ATCC 29213 incubated for 16 to 18 hrs by CLSI-based microbroth dilution method", "type": "functional", "conditions": "time 16-18 hrs"}, "[5]": {"assay": "Toxicity in KM mouse infected with methicillin-resistant Staphylococcus aureus 3 assessed as vacuolar degeneration in the kidneys at 5 to 10 mg/kg administered into skin infection site measured after 24 hrs by H and E staining based analysis", "type": "organism-based", "conditions": "in vivo, topical_or_ocular, dose 5-10 mg/kg"}, "Cell membrane [6]": {"test_system": "Cell membrane", "assay": "Induction of membrane depolarization in methicillin-resistant Staphylococcus aureus 3 assessed as increase in fluorescence intensity measured every 2 mins for 20 mins by SYTOX-green dye based fluorescence assay", "type": "subcellular", "conditions": "dose 8-32 µg/ml"}, "Staphylococcus aureus [7]": {"test_system": "Staphylococcus aureus", "assay": "Induction of ROS production in methicillin-resistant Staphylococcus aureus 3 assessed as fold increase in intracellular ROS level at 64 ug/ml incubated for 40 mins by DCFH-DA dye based fluorescence analysis relative to control", "type": "functional"}, "Staphylococcus aureus [8]": {"test_system": "Staphylococcus aureus", "assay": "Anti-MRSA activity against methicillin-resistant Staphylococcus aureus 3 incubated for 16 to 18 hrs in presence of 64 ug/ml cardiolipin by checkerboard broth dilution method (reference value: 1 ug/ml)", "type": "functional", "conditions": "time 16-18 hrs"}, "[9]": {"assay": "Toxicity in KM mouse assessed as mortality at 5 to 80 mg/kg, sc administered into middle dorsum and measured after 24 hrs", "type": "organism-based", "conditions": "in vivo, dose 5-80 mg/kg"}, "[10]": {"assay": "Toxicity in KM mouse infected with methicillin-resistant Staphylococcus aureus 3 assessed as swelling of renal tubular epithelial cells with granular degeneration at 5 to 10 mg/kg administered into skin infection site measured after 24 hrs by H and E staining based analysis", "type": "organism-based", "conditions": "in vivo, topical_or_ocular, dose 5-10 mg/kg"}, "[11]": {"assay": "Toxicity in KM mouse assessed as abnormalities in skin at 5 to 20 mg/kg, sc administered into middle dorsum and measured after 24 hrs", "type": "organism-based", "conditions": "in vivo, dose 5-20 mg/kg"}, "Staphylococcus aureus [12]": {"test_system": "Staphylococcus aureus", "assay": "Antibacterial activity against methicillin-resistant Staphylococcus aureus clinical isolate 10 incubated for 16 to 18 hrs by CLSI-based microbroth dilution method", "type": "functional", "conditions": "time 16-18 hrs"}, "Staphylococcus aureus [13]": {"test_system": "Staphylococcus aureus", "assay": "Antibacterial activity against methicillin-resistant Staphylococcus aureus 3 infected in KM mouse assessed as appearance of smoother dorsal skin at 10 mg/kg administered into skin infection site measured after 24 hrs", "type": "functional, organism-based"}, "Cell membrane [14]": {"test_system": "Cell membrane", "assay": "Disruption of membrane integrity in methicillin-resistant Staphylococcus aureus 3 assessed as increase in DNA leakage at 1 to 8 times MIC incubated for 4 hrs by microspectrophotometer analysis", "type": "subcellular"}, "Staphylococcus aureus [15]": {"test_system": "Staphylococcus aureus", "assay": "Bactericidal activity against Staphylococcus aureus ATCC 29213 at 4 times MIC by time kill assay", "type": "functional, organism-based", "conditions": "time 0-8 hrs, TDE = time-dependent effect"}, "Cell membrane [16]": {"test_system": "Cell membrane", "assay": "Disruption of membrane integrity in methicillin-resistant Staphylococcus aureus 3 assessed as increase in protein leakage at 1 to 8 times MIC incubated for 4 hrs by microspectrophotometer analysis", "type": "subcellular"}, "Staphylococcus aureus [17]": {"test_system": "Staphylococcus aureus", "assay": "Antibacterial activity against methicillin-resistant Staphylococcus aureus clinical isolate 2 incubated for 16 to 18 hrs by CLSI-based microbroth dilution method", "type": "functional", "conditions": "time 16-18 hrs"}, "[18]": {"assay": "Toxicity in KM mouse assessed as redness in skin at 40 to 80 mg/kg, sc administered into middle dorsum and measured after 24 hrs", "type": "organism-based", "conditions": "in vivo, dose 40-80 mg/kg"}, "Staphylococcus aureus [19]": {"test_system": "Staphylococcus aureus", "assay": "Anti-MRSA activity against methicillin-resistant Staphylococcus aureus 3 incubated for 16 to 18 hrs in presence of 0 to 64 ug/ml phosphatidylethanolamine by checkerboard broth dilution method", "type": "functional, organism-based", "conditions": "time 16-18 hrs"}, "Staphylococcus aureus [20]": {"test_system": "Staphylococcus aureus", "assay": "Induction of ROS production in methicillin-resistant Staphylococcus aureus 3 assessed as increase in intracellular ROS level incubated for 40 mins by DCFH-DA dye based fluorescence analysis", "type": "functional, organism-based", "conditions": "dose 0-64 µg/ml"}, "Cell membrane [21]": {"test_system": "Cell membrane", "assay": "Disruption of membrane integrity in methicillin-resistant Staphylococcus aureus 3 assessed as appearance of wrinkled cell surface at 16 ug/ml incubated for 240 mins by SEM analysis", "type": "subcellular", "conditions": "dose 16.0 µg/ml"}, "[22]": {"assay": "Toxicity in KM mouse infected with methicillin-resistant Staphylococcus aureus 3 assessed as multifocal enlargement of hepatocytes with cytoplasmic foamy swelling at 5 to 10 mg/kg administered into skin infection site measured after 24 hrs by H and E staining based analysis", "type": "organism-based", "conditions": "in vivo, topical_or_ocular, dose 5-10 mg/kg"}, "[23]": {"assay": "Toxicity in KM mouse assessed as swelling in skin at 40 to 80 mg/kg, sc administered into middle dorsum and measured after 24 hrs", "type": "organism-based", "conditions": "in vivo, dose 40-80 mg/kg"}, "Staphylococcus aureus [24]": {"test_system": "Staphylococcus aureus", "assay": "Antibacterial activity against methicillin-resistant Staphylococcus aureus 3 infected in KM mouse assessed as reduction in inflammatory cells in subcutaneous tissue at 5 to 10 mg/kg administered into skin infection site measured after 24 hrs by H and E staining based analysis", "type": "functional, organism-based", "conditions": "dose 5-10 mg/kg"}, "[25]": {"assay": "Toxicity in KM mouse assessed as pathological changes in spleen at 20 mg/kg, sc administered into middle dorsum and measured after 24 hrs by H and E staining based analysis", "type": "organism-based", "conditions": "in vivo"}, "Cell membrane [26]": {"test_system": "Cell membrane", "assay": "Induction of membrane depolarization in methicillin-resistant Staphylococcus aureus 3 assessed as increase in fluorescence intensity at 8 to 16 ug/ml measured every 2 mins for 20 mins by DiSC35 dye-based fluorescence assay", "type": "subcellular", "conditions": "dose 8-16 µg/ml"}, "[27]": {"assay": "Toxicity in KM mouse infected with methicillin-resistant Staphylococcus aureus 3 assessed as histopathological abnormalities in heart at 5 to 10 mg/kg administered into skin infection site measured after 24 hrs by H and E staining based analysis", "type": "organism-based", "conditions": "in vivo, topical_or_ocular, dose 5-10 mg/kg"}, "Staphylococcus aureus [28]": {"test_system": "Staphylococcus aureus", "assay": "Antibacterial activity against methicillin-resistant Staphylococcus aureus clinical isolate 4 incubated for 16 to 18 hrs by CLSI-based microbroth dilution method", "type": "functional", "conditions": "time 16-18 hrs"}, "[29]": {"assay": "Toxicity in KM mouse infected with methicillin-resistant Staphylococcus aureus 3 assessed as spleen damage at 5 to 10 mg/kg administered into skin infection site measured after 24 hrs by H and E staining based analysis", "type": "organism-based", "conditions": "in vivo, topical_or_ocular, dose 5-10 mg/kg"}, "Staphylococcus aureus [30]": {"test_system": "Staphylococcus aureus", "assay": "Bactericidal activity against methicillin-resistant Staphylococcus aureus 3 incubated for 6 hrs in presence of 50% sheep plasma", "type": "functional, organism-based"}, "[31]": {"assay": "Toxicity in KM mouse infected with methicillin-resistant Staphylococcus aureus 3 assessed as heart damage at 5 to 10 mg/kg administered into skin infection site measured after 24 hrs by H and E staining based analysis", "type": "organism-based", "conditions": "in vivo, topical_or_ocular, dose 5-10 mg/kg"}, "[32]": {"assay": "Toxicity in KM mouse infected with methicillin-resistant Staphylococcus aureus 3 assessed as kidney damage at 5 to 10 mg/kg administered into skin infection site measured after 24 hrs by H and E staining based analysis", "type": "organism-based", "conditions": "in vivo, topical_or_ocular, dose 5-10 mg/kg"}, "[33]": {"assay": "Toxicity in KM mouse infected with methicillin-resistant Staphylococcus aureus 3 assessed as histopathological abnormalities in lungs at 5 to 10 mg/kg administered into skin infection site measured after 24 hrs by H and E staining based analysis", "type": "organism-based", "conditions": "in vivo, topical_or_ocular, dose 5-10 mg/kg"}, "[34]": {"assay": "Toxicity in KM mouse assessed as pathological changes in lungs at 20 mg/kg, sc administered into middle dorsum and measured after 24 hrs by H and E staining based analysis", "type": "organism-based", "conditions": "in vivo"}}, "note": "The source made the active and inactive calls. The calls are words filed in the database; no cut-off is given here.", "data": [{"smiles": "CCCN(CCC)C(=O)C[N+](C)(C)CCCCOc1ccc(/C=C/C(=O)c2c(OC)cc3c(c2O)C=CC(C)(C)O3)cc1.[Br-]", "values": [{"measurement": "Activity", "setting": "[1]", "result": "Non-Toxic"}, {"measurement": "Activity", "setting": "[2]", "result": "Non-Toxic"}, {"measurement": "Activity", "setting": "[3]", "result": "Non-Toxic"}, {"measurement": "MIC", "setting": "Staphylococcus aureus [4]", "result": 1, "unit": "µg/mL"}, {"measurement": "Activity", "setting": "[5]", "result": "Non-Toxic"}, {"measurement": "Activity", "setting": "Cell membrane [6]", "result": "Dose-Dependent Effect"}, {"measurement": "fold change (FC)", "setting": "Staphylococcus aureus [7]; dose 64 µg/ml", "result": 7}, {"measurement": "Activity", "setting": "Staphylococcus aureus [7]; dose 64.0 µg/ml", "result": "Active"}, {"measurement": "MIC", "setting": "Staphylococcus aureus [8]", "result": 32, "unit": "µg/mL"}, {"measurement": "Activity", "setting": "[9]", "result": "Non-Toxic"}, {"measurement": "Activity", "setting": "[10]", "result": "Non-Toxic"}, {"measurement": "Activity", "setting": "[11]", "result": "Non-Toxic"}, {"measurement": "MIC", "setting": "Staphylococcus aureus [12]", "result": 1, "unit": "µg/mL"}, {"measurement": "Activity", "setting": "Staphylococcus aureus [13]", "result": "Active"}, {"measurement": "Activity", "setting": "Cell membrane [14]", "result": "Dose-Dependent Effect"}, {"measurement": "Activity", "setting": "Staphylococcus aureus [15]", "result": "Tde"}, {"measurement": "Activity", "setting": "Cell membrane [16]", "result": "Dose-Dependent Effect"}, {"measurement": "MIC", "setting": "Staphylococcus aureus [17]", "result": 2, "unit": "µg/mL"}, {"measurement": "Activity", "setting": "[18]", "result": "Toxic"}, {"measurement": "Activity", "setting": "Staphylococcus aureus [19]", "result": "Active"}, {"measurement": "Activity", "setting": "Staphylococcus aureus [20]", "result": "Active"}, {"measurement": "Activity", "setting": "Cell membrane [21]", "result": "Active"}, {"measurement": "Activity", "setting": "[22]", "result": "Non-Toxic"}, {"measurement": "Activity", "setting": "[23]", "result": "Toxic"}, {"measurement": "Activity", "setting": "Staphylococcus aureus [24]", "result": "Active"}, {"measurement": "Activity", "setting": "[25]", "result": "Non-Toxic"}, {"measurement": "Activity", "setting": "Cell membrane [26]", "result": "Active"}, {"measurement": "Activity", "setting": "[27]", "result": "Non-Toxic"}, {"measurement": "MIC", "setting": "Staphylococcus aureus [28]", "result": 2, "unit": "µg/mL"}, {"measurement": "Activity", "setting": "[29]", "result": "Non-Toxic"}, {"measurement": "Activity", "setting": "Staphylococcus aureus [30]", "result": "Active"}, {"measurement": "Activity", "setting": "[31]", "result": "Non-Toxic"}, {"measurement": "Activity", "setting": "[32]", "result": "Non-Toxic"}, {"measurement": "Activity", "setting": "[33]", "result": "Non-Toxic"}, {"measurement": "Activity", "setting": "[34]", "result": "Non-Toxic"}]}]}
